Experimental findings from ChEMBL document CHEMBL5214948, “Boronic Acid: A Novel Pharmacophore Targeting Src Homology 2 (SH2) Domain of STAT3” (J Med Chem, 2022) are described below.

One assay relates to AGS. The experiment in a line: Antiproliferative activity against human AGS cells assessed as reduction in cell viability incubated for 72 hrs by CCK-8 assay. It counts as functional, cell-based.
Another assay has as its system MGC-803. The experiment in a line: Antiproliferative activity against human MGC-803 cells assessed as reduction in cell viability measured after 72 hrs by CCK-8 assay. It counts as functional, cell-based. Particulars: MGC-803, 72 h. (Tetrazolium assays rely on reduction of a dye to a coloured formazan, in cell work by metabolically active cells.)

On to `C[C@@H](C(=O)N(Cc1ccc(C2CCCCC2)cc1)c1ccc(B(O)O)cc1)N(C)S(=O)(=O)c1c(F)c(F)c(F)c(F)c1F`, for which the concentration for half-maximal inhibition (IC50) (as a rule, the concentration needed to halve the response being measured) with AGS stood at 2.57 µM; in the assay on MGC-803, 4.71 µM.
For `O=C([C@H]1CCCN1S(=O)(=O)c1c(F)c(F)c(F)c(F)c1F)N(Cc1ccc(C2CCCCC2)cc1)c1ccc(B(O)O)cc1`, the IC50 in the assay on AGS was found to be 2.78 µM; in the assay on MGC-803, 6.07 µM.
For `O=C([C@H]1CCN1S(=O)(=O)c1c(F)c(F)c(F)c(F)c1F)N(Cc1ccc(C2CCCCC2)cc1)c1ccc(B(O)O)cc1`, the results for the IC50 with AGS and in the assay on MGC-803 were 1.98 µM and 4.83 µM, respectively.
